The text below walks through data of patent US20050142160A1, “ACTIVE ATTRACTANT COMPOSITION FOR INSECTS” (priority 2003, published 2005).

Assay [1] concerns houseflies (musca domestica). Nature of the assay: Test-room trap choice experiment, attractants compared with the standard (% of total flies caught). It counts as in vivo. The settings on record: for % Catch: Table 3, TMA/Z-9 and the combination; for attractiveness to flies (in words): attractant judged by itself or against a named alternative; for effect on the attractancy of the standard TMA/Z-9 when combined (in words): in combination with trimethylamine and Z-9-tricosene. As for the experimental part:
The trimethylamine (TMA) solution was prepared freshly for each experiment by dissolving a known amount of trimethylamine in a solution of sodium bicarbonate in water, to make 6 milliliters total volume. […] Additional attractants were placed in a third jar lid, or otherwise dispersed separately in the lower compartment of the test traps, for comparison against the standard. A testing room approximately 10 feet by 15 feet was furnished with folding tables on which to place the traps. In such a room was placed a total of six traps, two each of the control, the new attractant, and a combination of control+new attractant. Flies were raised from fly pupae, purchased from Beneficial […], California in a separate room under controlled conditions. For each experiment, after setting up the test traps, around 200 flies were introduced into the room for an 18-24 hour period, and observations were made periodically. At the end of each experiment, flies were counted in each trap, and the remaining flies not trapped were counted in order to account for all flies. In most cases, the remaining flies not caught had expired and were found on the floor of the testing suite. The data are reported for each trap as the percentage of the total flies caught, ignoring the flies not caught. It was observed that a percentage of the initially released flies were always weaker than the main population, and would quickly move toward the floor. Thus, only healthy, active flies were caught, since they were still foraging and seeking mating partners. The experiments were repeated daily, randomly rotating the relative positions of traps in the room with respect to their contents, such that positional effects in the room would be averaged out over many repetitions of the experiment. The results of each experiment, one per day, over one to two weeks, were totaled, and the total catch per attractant type were reported as percentage of catch (% catch).

A further assay deals with flies. The assay is described as follows: Comparison of muscalure against other fly attractants. It counts as in vivo. The settings on record: compared against other fly attractants; no method given.

As for `CC(=O)O` [Acetic Acid, Acetic acid], the “% Catch” value in assay [1] (choice between acetic acid) is listed as 7%. Moreover, in assay [1], the “attractiveness to flies (in words)” value is reported as “weak attractant” and the “effect on the attractancy of the standard TMA/Z-9 when combined (in words)” value (“effect on the attractancy” below) is on record as “no effect on the attractancy of TMA/Z-9”.

Take `C=CC(O)CCCCC` (stereo not drawn) [Attractant 1-octen-3-ol, 1-octen-3-ol]: in assay [1] (choice between 1-octen-3-ol), the “% Catch” value is on record as 0%. In assay [1], the “attractiveness to flies (in words)” value is “non-attractive or repellent to flies” and the “effect on the attractancy” value is “lowered the overall relative catch”.

As to `CCO` [Ethanol], in assay [1] (choice between ethanol), the “% Catch” value is listed as 7%. For the same molecule, in assay [1], the “attractiveness to flies (in words)” value is “weak attractant” and the “effect on the attractancy” value is listed as “no statistically significant effect on the attractancy of the standard”.

As for `CCCC(=O)O` [butyric acid], the “effect on the attractancy” value in assay [1] is on record as “increases the attractiveness of the attractant combination”.

On to `CCCCCCCC/C=C\CCCCCCCCCCCCC` [muscalure, Z-9-tricosene], for which the “attractiveness to flies (in words)” value with flies is recorded as “weak fly attractant”.

Regarding “Z-9-epoxytricosene [Attractant Z-9-Epoxy]”, the “attractiveness to flies (in words)” value in assay [1] was “no more attractive than Z-9-tricosene”.
